Converted amounts (≈) assume the structure as drawn.
Assays:
[1] = Hemolytic activity in Sheep RBC assessed as hemolysis at 31 ug/ml by microplate reader analysis relative to control; type: toxicity, cell-based, Ovis aries, Erythrocyte; details: sheep red blood cells (erythrocytes), at 31 µg/mL, read-out: Activity
MDA-MB-231 [2] = test: Cytotoxicity against human MDA-MB-231 cells cultured as 3D cells assessed as cell death at 62.5 ug/ml measured after 12 hrs by OCT/imaris based analysis relative to control; type: functional; details: dose 62.5 µg/ml
[3] = Therapeutic index, ratio of HC50 for sheep RBC to IC50 for cytotoxicity against human MDA-MB-231 cultured as 2D cells; type: toxicity, cell-based; details: sheep (RBC) and human (MDA-MB-231), sheep red blood cells versus MDA-MB-231 cells, 2D culture; read-out: TI
MDA-MB-231 [4] = test: Cytotoxicity against human MDA-MB-231 cultured as 3D cells assessed as inhibition of cell growth measured after 12 hrs by CellTiter-Glo luciferase detection reagent based assay; type: functional; details: MDA-MB-231, 12 h
[5] = Selectivity ratio of IC50 for human MDA-MB-231 cultured as 3D cells to IC50 for human MDA-MB-231 cultured as 2D cells; type: functional
[6] = Therapeutic index, ratio of IC50 for cytotoxicity against human dermal fibroblast cultured as 2D cells to IC50 for cytotoxicity against human MDA-MB-231 cultured as 2D cells; type: toxicity, cell-based; details: human dermal fibroblasts versus MDA-MB-231 cells, 2D culture, read-out: TI
MDA-MB-231 [7] = test: Cytotoxicity against human MDA-MB-231 cells cultured as 2.5D cells assessed as increase in dead cell count at 62.5 ug/ml incubated for 12 hrs by tryphan blue based analysis (Rvb=7700x10^3No_unit); type: functional; details: dose 62.5 µg/ml
MDA-MB-231 [8] = test: Cytotoxicity against human MDA-MB-231 cells cultured as 2.5D cells assessed as decrease in live cell count at 62.5 ug/ml incubated for 12 hrs by tryphan blue based analysis (Rvb=22000x10^3No_unit); type: functional; details: dose 62.5 µg/ml
[9] = Therapeutic index, ratio of IC50 for cytotoxicity against human dermal fibroblast cultured as 3D cells to IC50 for cytotoxicity against human MDA-MB-231 cultured as 3D cells; type: toxicity, cell-based; details: human dermal fibroblasts versus MDA-MB-231 cells, 3D culture, read-out: TI
[10] = Hemolytic activity against Sheep RBC assessed as hemolysis by microplate reader analysis; type: toxicity, cell-based, Ovis aries, Erythrocyte; details: sheep red blood cells (erythrocytes)
MDA-MB-231 [11] = test: Cytotoxicity against human MDA-MB-231 cells cultured as 2.5D cells assessed as cell death measured after 12 hrs relative to control; type: functional
[12] = Selectivity ratio of IC50 for human MDA-MB-231 cultured as 2.5D cells to IC50 for human MDA-MB-231 cultured as 2D cells; type: functional
MDA-MB-231 [13] = test: Cytotoxicity against human MDA-MB-231 cells cultured as 3D cells assessed as increase in dead cell count at 62.5 ug/ml incubated for 12 hrs by tryphan blue based analysis (Rvb=11000x10^3No_unit); type: functional; details: dose 62.5 µg/ml
[14] = Therapeutic index, ratio of HC50 for Sheep RBC to IC50 for cytotoxicity against human MDA-MB-231 cultured as 3D cells; type: toxicity, cell-based; details: sheep (RBC) and human (MDA-MB-231), sheep red blood cells versus MDA-MB-231 cells, 3D culture; read-out: TI
MDA-MB-231 [15] = test: Cytotoxicity against human MDA-MB-231 cultured as 2D cells assessed as inhibition of cell growth measured after 12 hrs by CCK8 assay; type: functional, cell-based; details: MDA-MB-231, 12 h
MDA-MB-231 [16] = test: Cytotoxicity against human MDA-MB-231 cells cultured as 3D cells assessed as cell death at 62.5 ug/ml measured after 12 hrs by tryphan blue based analysis relative to control; type: functional; details: dose 62.5 µg/ml
MDA-MB-231 [17] = test: Cytotoxicity against human MDA-MB-231 cells cultured as 3D cells assessed as decrease in live cell count at 62.5 ug/ml incubated for 12 hrs by tryphan blue based analysis (Rvb=20900x10^3No_unit); type: functional; details: dose 62.5 µg/ml
[18] = Cytotoxicity against human dermal fibroblast cultured as 2D cells assessed as reduction in cell viability measured after 12 hrs by CCK8 assay; type: toxicity, cell-based; details: human dermal fibroblasts (NHDF), 2D culture
MDA-MB-231 [19] = test: Cytotoxicity against human MDA-MB-231 cells cultured as 2.5D cells assessed as cell death at 62.5 ug/ml measured after 12 hrs by OCT/imaris based analysis relative to control; type: functional; details: dose 62.5 µg/ml
MDA-MB-231 [20] = test: Cytotoxicity against human MDA-MB-231 cultured as 2.5D cells assessed as inhibition of cell growth measured after 12 hrs by CellTiter-Glo luciferase detection reagent based assay; type: functional; details: MDA-MB-231, 12 h
[21] = Therapeutic index, ratio of IC50 for cytotoxicity against human dermal fibroblast cultured as 2.5 D cells to IC50 for cytotoxicity against human MDA-MB-231 cultured as 2.5 D cells; type: toxicity, cell-based; details: read-out: TI
[22] = Therapeutic index, ratio of HC50 for Sheep RBC to IC50 for cytotoxicity against human MDA-MB-231 cultured as 2.5D cells; type: toxicity, cell-based; details: sheep (RBC) and human (MDA-MB-231), sheep red blood cells versus MDA-MB-231 cells, 2.5D culture; read-out: TI
MDA-MB-231 [23] = test: Cytotoxicity against human MDA-MB-231 cells cultured as 2.5D cells assessed as cell death at 62.5 ug/ml measured after 12 hrs by tryphan blue based analysis relative to control; type: functional; details: dose 62.5 µg/ml
MDA-MB-231 [24] = test: Cytotoxicity against human MDA-MB-231 cells cultured as 3D cells assessed as cell death measured after 12 hrs relative to control; type: functional
[25] = Growth inhibition of human dermal fibroblast cultured as 2D cells by tryphan blue based analysis; type: toxicity, cell-based; details: human dermal fibroblasts (NHDF), 2D culture
MDA-MB-231 [26] = test: Cytotoxicity against human MDA-MB-231 cells cultured as 3D cells assessed as cell death at 125 ug/ml measured after 12 hrs by tryphan blue based analysis relative to control; type: functional; details: dose 125 µg/ml
MDA-MB-231 [27] = test: Cytotoxicity against human MDA-MB-231 cells cultured as 3D cells assessed as decrease in live cell count at 125 ug/ml incubated for 12 hrs by tryphan blue based analysis (Rvb=20900x10^3No_unit); type: functional; details: dose 125 µg/ml
MDA-MB-231 [28] = test: Cytotoxicity against human MDA-MB-231 cells cultured as 3D cells assessed as cell death at 125 ug/ml measured after 12 hrs by OCT/imaris based analysis relative to control; type: functional; details: dose 125 µg/ml
Jurkat = test: Antiproliferative activity against human Jurkat T cells assessed as inhibition of cell growth at 25 ug/ml relative to control; type: functional
MDA-MB-231 [29] = test: Cytotoxicity against human MDA-MB-231 cells cultured as 3D cells assessed as increase in dead cell count at 125 ug/ml incubated for 12 hrs by tryphan blue based analysis (Rvb=11000x10^3No_unit); type: functional; details: dose 125 µg/ml
MDA-MB-231 [30] = test: Cytotoxicity against human MDA-MB-231 cells cultured as 2.5D cells assessed as decrease in live cell count at 125 ug/ml incubated for 12 hrs by tryphan blue based analysis (Rvb=22000x10^3No_unit); type: functional; details: dose 125 µg/ml
MDA-MB-231 [31] = test: Cytotoxicity against human MDA-MB-231 cells cultured as 2.5D cells assessed as increase in dead cell count at 125 ug/ml incubated for 12 hrs by tryphan blue based analysis (Rvb=7700x10^3No_unit); type: functional; details: dose 125 µg/ml
MDA-MB-231 [32] = test: Cytotoxicity against human MDA-MB-231 cells cultured as 2.5D cells assessed as cell death at 125 ug/ml measured after 12 hrs by tryphan blue based analysis relative to control; type: functional; details: dose 125 µg/ml
MDA-MB-231 [33] = test: Cytotoxicity against human MDA-MB-231 cells cultured as 2.5D cells assessed as cell death at 125 ug/ml measured after 12 hrs by OCT/imaris based analysis relative to control; type: functional; details: dose 125 µg/ml

| SMILES | hemolysis at 31 ug/ml [1] | selectivity ratio [3] | IC50 (MDA-MB-231 [4]) | Ratio IC50 [5] | selectivity ratio [6] | selectivity ratio [9] | HC50 [10] | Activity (MDA-MB-231 [11]) | Ratio IC50 [12] | selectivity ratio [14] | IC50 (MDA-MB-231 [15]) | IC50 at 12 h [18] | IC50 (MDA-MB-231 [20]) | selectivity ratio [21] | selectivity ratio [22] | Activity (MDA-MB-231 [24]) | further results |
| --- | --- | --- | --- | --- | --- | --- | --- | --- | --- | --- | --- | --- | --- | --- | --- | --- | --- |
| CC(=O)OC[C@H]1O[C@H]2OC(C)CCCCCC/C=C\CCCCCCCC(=O)O[C@H]3[C@H](O)[C@@H](O)[C@H](O[C@@H]2[C@@H](O)[C@@H]1O)O[C@@H]3COC(C)=O (stereo not given in full) | > 10% | 8.93 | 33 µg/mL (≈ 47.9 µM) | 2.5 | 2.21 | 0.94 | 125 µg/mL | 88.4% | 3 | 3.79 | 14 µg/mL (≈ 20.3 µM) | 31 µg/mL (≈ 45 µM) | 38 µg/mL (≈ 55.2 µM) | 0.82 | 3.29 | 89.3% | Activity (MDA-MB-231 [2]): 70%; Activity (MDA-MB-231 [7]): 13933 10^3No_unit; Activity (MDA-MB-231 [8]): 3117 10^3No_unit; Activity (MDA-MB-231 [13]): 17783 10^3No_unit; Activity (MDA-MB-231 [16]): 70%; Activity (MDA-MB-231 [17]): 3300 10^3No_unit; Activity (MDA-MB-231 [19]): 70%; Activity (MDA-MB-231 [23]): 70% |
| COc1cccc2c1C(=O)c1c(O)c3c(c(O)c1C2=O)C[C@@](O)(C(=O)CO)C[C@@H]3O[C@H]1C[C@H](N)[C@H](O)[C@H](C)O1 [DOXORUBICIN] |  |  |  |  |  |  |  |  |  |  |  |  |  |  |  |  | GI50 [25]: 30 µg/mL (≈ 55.2 µM) |
| CCOC(=O)CCCCCCC/C=C\CCCCCCC(C)O[C@@H]1O[C@H](COC(C)=O)[C@@H](O)[C@H](O)[C@H]1O[C@@H]1O[C@H](COC(C)=O)[C@@H](O)[C@H](O)[C@H]1O (stereo not given in full) | > 10% | 4.63 | 130 µg/mL (≈ 177 µM) | 5 | 1.59 | 0.33 | 125 µg/mL | 80.2% | 4.5 | 0.96 | 27 µg/mL (≈ 36.7 µM) | 43 µg/mL (≈ 58.5 µM) | 120 µg/mL (≈ 163 µM) | 0.36 | 1.04 | 88.2% | Activity (MDA-MB-231 [26]): 70%; Activity (MDA-MB-231 [27]): 3667 10^3No_unit; Activity (MDA-MB-231 [28]): 70%; inhibition at 25 µg/mL (Jurkat): 90%; Activity (MDA-MB-231 [29]): 22917 10^3No_unit; Activity (MDA-MB-231 [30]): 5500 10^3No_unit; Activity (MDA-MB-231 [31]): 16317 10^3No_unit; Activity (MDA-MB-231 [32]): 70%; Activity (MDA-MB-231 [33]): 70% |

From ChEMBL document CHEMBL5316361 (J Nat Prod, 2023)
